Reference: ChEMBL document CHEMBL2016464, “Identification of Inhibitors of NOD1-Induced Nuclear Factor-κB Activation” (ACS Med Chem Lett, 2011)
≈ marks a conversion by molar mass, not a printed value.

How the values were obtained:
[1] = cells; settings: Homo sapiens, HEK-293T, 14 h
Description: Inhibition of TNFalpha-induced NFkappaB activation in HEK293T cells after 14 hrs by luciferase reporter gene assay

[2] = system: HEK-293T; test: Cytotoxicity against HEK293T cells at 20 uM by alamar blue assay; format: cell-based; settings: human
[3] = target: Nucleotide-binding oligomerization domain-containing protein 2 (Homo sapiens, UniProt Q9HC29)
Chain of Nucleotide-binding oligomerization domain-containing protein 2 (Q9HC29 whole entry, the tested form may be a part): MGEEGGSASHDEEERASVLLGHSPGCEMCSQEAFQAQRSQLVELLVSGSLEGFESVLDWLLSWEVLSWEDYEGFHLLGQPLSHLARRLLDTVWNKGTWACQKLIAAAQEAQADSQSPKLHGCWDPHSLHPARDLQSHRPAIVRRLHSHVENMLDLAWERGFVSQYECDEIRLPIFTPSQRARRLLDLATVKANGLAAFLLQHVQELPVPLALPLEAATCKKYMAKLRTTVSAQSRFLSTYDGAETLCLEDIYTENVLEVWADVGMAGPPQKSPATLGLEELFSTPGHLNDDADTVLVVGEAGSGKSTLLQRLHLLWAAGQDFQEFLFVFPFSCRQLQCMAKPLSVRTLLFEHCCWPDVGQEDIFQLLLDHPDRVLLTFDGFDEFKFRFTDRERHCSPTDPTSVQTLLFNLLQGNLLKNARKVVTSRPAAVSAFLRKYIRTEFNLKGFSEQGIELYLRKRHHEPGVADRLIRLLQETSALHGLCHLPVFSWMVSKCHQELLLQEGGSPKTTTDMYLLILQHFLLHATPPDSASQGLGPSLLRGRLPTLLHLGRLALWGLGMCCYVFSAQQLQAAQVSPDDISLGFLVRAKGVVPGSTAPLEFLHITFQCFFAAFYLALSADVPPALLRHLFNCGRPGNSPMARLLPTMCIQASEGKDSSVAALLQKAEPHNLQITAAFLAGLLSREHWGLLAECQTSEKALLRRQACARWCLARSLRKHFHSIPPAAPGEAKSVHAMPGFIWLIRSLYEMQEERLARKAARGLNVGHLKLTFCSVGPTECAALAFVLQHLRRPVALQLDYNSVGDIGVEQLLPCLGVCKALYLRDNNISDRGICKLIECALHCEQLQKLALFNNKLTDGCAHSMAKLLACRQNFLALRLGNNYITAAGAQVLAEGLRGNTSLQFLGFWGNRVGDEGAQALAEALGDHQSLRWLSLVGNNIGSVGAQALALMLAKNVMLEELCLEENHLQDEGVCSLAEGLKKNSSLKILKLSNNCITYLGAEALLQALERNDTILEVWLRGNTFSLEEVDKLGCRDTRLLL

[4] = Solubility of the compound at pH 7.4; format: physicochemical; settings: buffer

Row | SMILES | IC50 [1] [µM] | Activity [2] [%] | IC50 [3] [µM] | solubility [4] [µg/mL]
1 | CN(C)c1ccc(NC(=O)c2ccc(CN3CCc4ccccc43)cc2)cc1 | > 20 | 0 |  | 
2 | O=C(Nc1ccc(Cl)cc1)c1ccc(CN2CCc3ccccc3C2)cc1 | 0.49 | 0 | 3.54 | 
3 | CCC(=O)N1CCc2cc(S(=O)(=O)N3CCN(c4ccc([N+](=O)[O-])cc4)CC3)ccc21 | > 20 | 0 |  | 
4 | CC(=O)N1CCc2cc(S(=O)(=O)N3CCN(c4ccc(Cl)cc4)CC3)ccc21 | > 20 | 0 |  | 
5 | Nc1nc2ccccc2n1S(=O)(=O)c1ccccc1 | > 20 | 0 |  | 
6 | CCC(=O)N1c2ccc(S(=O)(=O)N3CCN(c4ccc(C(C)=O)cc4)CC3)cc2CC1C (racemic) | 1.63 | 0 | 1.58 | 0.1 (≈ 0.22 µM)
7 | CC(=O)N1c2ccc(S(=O)(=O)N3CCN(c4ccc(C)cc4)CC3)cc2CC1C (racemic) | 4.32 | 0 | 3.45 | 0.1 (≈ 0.242 µM)
8 | CC1Cc2cc(S(=O)(=O)N3CCN(c4ccc(Cl)cc4)CC3)ccc2N1C(=O)C1CC1 (racemic) | 7.26 | 0 | 3.63 | 0.1 (≈ 0.217 µM)
9 | Nc1nc2ccccc2n1S(=O)(=O)c1ccc([N+](=O)[O-])cc1 |  | 0 |  | 
10 | COc1ccc(N2CCN(S(=O)(=O)c3ccc4c(c3)CC(C)N4C(C)=O)CC2)cc1 (racemic) | 4.3 | 0 | 3.29 | 0.1 (≈ 0.233 µM)
11 | Nc1nc2ccccc2n1Cc1ccc(Cl)cc1 | > 20 | 0 |  | 
12 | CC(=O)N1CCc2cc(S(=O)(=O)N3CCN(c4ccc(C#N)cc4)CC3)ccc21 | 8.79 | 0 |  | 0.1 (≈ 0.244 µM)
13 | CC(=O)N1c2ccc(S(=O)(=O)N3CCN(c4ccc(Cl)cc4)CC3)cc2CC1C (racemic) | 5.76 | 0 | 1.75 | 0.1 (≈ 0.23 µM)
14 | Cc1ccc(S(=O)(=O)n2c(N)nc3cc(C)c(C)cc32)cc1 | > 20 | 0 |  | 
15 | O=C(Nc1ccc(F)cc1)c1ccc(CN2CCc3ccccc32)cc1 | > 20 | 0 |  | 
16 | CCOC(=O)c1ccc(NC(=O)c2ccc(CCN3CCc4ccccc4C3)cc2)cc1 | 10.8 | 0 | > 20 | 
17 | CC(=O)c1ccc(N2CCN(S(=O)(=O)c3ccc4c(c3)CC(C)N4C(C)=O)CC2)cc1 (racemic) | 6 | 0 | 3.72 | 0.1 (≈ 0.226 µM)
18 | CCOc1ccc(NC(=O)c2ccc(CN3CCc4ccccc4C3)cc2)cc1 | 2.05 | 0 | 0.57 | 
19 | CC(=O)c1ccc(N2CCN(S(=O)(=O)c3ccc4c(c3)CCN4C(C)=O)CC2)cc1 | > 20 | 0 |  | 
20 | Cc1ccc(NC(=O)c2ccc(CN3CCc4ccccc4C3)cc2)cc1 | > 20 | 0 | > 20 | 
21 | CCC(=O)N1CCc2cc(S(=O)(=O)N3CCN(c4ccc(C#N)cc4)CC3)ccc21 | > 20 | 0 |  | 
22 | Nc1nc2ccccc2n1CCC(=O)c1ccc(Cl)cc1 | > 20 | 0 |  | 
23 | CCC(=O)N1c2ccc(S(=O)(=O)N3CCN(c4ccc([N+](=O)[O-])cc4)CC3)cc2CC1C (racemic) | 4.92 | 0 | 1.55 | 0.1 (≈ 0.218 µM)
24 | COc1ccc(NC(=O)c2ccc(CN3CCc4ccccc4C3)cc2)cc1 | 0.65 | 0 | 0.78 | 
25 | N#Cc1ccc(N2CCN(S(=O)(=O)c3ccc4c(c3)CCN4C(=O)C3CC3)CC2)cc1 | > 20 | 0 |  | 

Row | SMILES | IC50 [1] [µM] | Activity [2] [%] | IC50 [3] [µM] | solubility [4] [µg/mL]
26 | CC(=O)N1c2ccc(S(=O)(=O)N3CCN(c4ccc([N+](=O)[O-])cc4)CC3)cc2CC1C (racemic) | 3.27 | 0 |  | 
27 | CN(C)c1ccc(NC(=O)c2ccc(CN3CCCCC3)cc2)cc1 | > 20 | 0 |  | 
28 | COc1ccc(S(=O)(=O)n2c(N)nc3ccccc32)cc1 |  | 0 |  | 
29 | COc1ccc(N2CCN(S(=O)(=O)c3ccc4c(c3)CC(C)N4C(=O)C3CC3)CC2)cc1 (racemic) | 3.85 | 0 | 0.39 | 0.1 (≈ 0.22 µM)
30 | CCOC(=O)c1ccc(NC(=O)c2ccc(CN3CCc4ccccc4C3)cc2)cc1 | 0.14 | 0 | 0.4 | 
31 | O=C(Nc1ccc(Br)cc1)c1ccc(CN2CCc3ccccc3C2)cc1 | 1.5 | 0 |  | 
32 | CC(=O)c1ccc(N2CCN(S(=O)(=O)c3ccc4c(c3)CCN4C(=O)C3CC3)CC2)cc1 | > 20 | 0 |  | 
33 | O=C(Nc1ccc(F)cc1)c1ccc(CN2CCc3ccccc3C2)cc1 | 2.88 | 0 | 1.85 | 
34 | CCOc1ccc(NC(=O)c2ccc(CN3CCCCC3)cc2)cc1 | > 20 | 0 |  | 
35 | Cc1ccc(S(=O)(=O)n2c(S)nc3ccc(C)cc32)cc1 | > 20 | 0 |  | 
36 | CSc1ccc(NC(=O)c2ccc(CN3CCCCC3)cc2)cc1 | > 20 | 0 |  | 
37 | Cc1ccc(S(=O)(=O)n2c(C)nc3ccccc32)cc1 |  | 0 |  | 
38 | CC1Cc2cc(S(=O)(=O)N3CCN(c4ccc([N+](=O)[O-])cc4)CC3)ccc2N1C(=O)C1CC1 (racemic) | 0.24 | 0 | 0.2 | 0.1 (≈ 0.213 µM)
39 | Nc1nc2ccccc2n1S(=O)(=O)c1ccc(Cl)cc1 |  | 0 |  | 
40 | Nc1nc2ccccc2n1C(=O)c1ccc(Cl)cc1Cl |  | 0 |  | 
41 | CCC(=O)N1c2ccc(S(=O)(=O)N3CCN(c4ccc(Cl)cc4)CC3)cc2CC1C (racemic) | 0.58 | 0 | 0.6 | 0.1 (≈ 0.223 µM)
42 | CC(=O)N1CCc2cc(S(=O)(=O)N3CCN(c4ccc([N+](=O)[O-])cc4)CC3)ccc21 | > 20 | 0 |  | 
43 | CSc1ccc(NC(=O)c2ccc(CN3CCc4ccccc4C3)cc2)cc1 | 0.37 | 0 | 0.26 | 
44 | CN(C)c1ccc(NC(=O)c2ccc(CN3CCc4ccccc4C3)cc2)cc1 | 1.83 | 0 | 3.58 | 
45 | O=C(C1CC1)N1CCc2cc(S(=O)(=O)N3CCN(c4ccc([N+](=O)[O-])cc4)CC3)ccc21 | > 20 | 0 |  | 0.1 (≈ 0.219 µM)
46 | O=C(Nc1ccc(F)cc1)c1ccc(CN2CCCCC2)cc1 | > 20 | 0 |  | 
47 | Nc1nc2ccccc2n1C(=O)c1ccc(F)cc1 |  | 0 |  | 
48 | Cc1ccc(S(=O)(=O)n2cnc3ccccc32)cc1 | > 20 | 0 | > 20 | 
49 | CC(=O)N1c2ccc(S(=O)(=O)N3CCN(c4ccccc4)CC3)cc2CC1C (racemic) | 14.1 | 0 | 8.27 | 0.1 (≈ 0.25 µM)
